Three compounds from patent US6497862B2, “Composition for inhibiting body odor and uses thereof” (Kabushiki Kaisha Hayashibara, priority 2000, dated 2002) can be followed below.

The nature of assay [1]: Panel test of body-odor-like smell, oleic acid heated (Experiment 1). The settings on record: oleic acid heated at 105° C. for one hour; six panels, compared with control system. More on the design: key: +++: the same or higher level of odor; ++: slightly lower level of odor; +: clearly lower level of odor than that of the control system. The protocol:
(§1) One hundred milligrams of oleic acid as a fatty acid, 500 mg of cellulose powder, and 1.25 ml of 0.12 M phosphate buffer (pH 6.0) were placed in a 20-ml glass vial. To the glass vial were added 100 mg of either of crystalline trehalose hydrate, crystalline maltitol anhydride, crystalline sorbitol anhydride, crystalline sucrose anhydride, crystalline maltose anhydride, and crystalline neotrehalose hydride as test saccharides (throughout Experiments 1 to 6, these saccharides are designated as “trehalose”, “maltitol”, sorbitol”, “sucrose”, “maltose”, and “neotrehalose”, respectively), followed by sealing the glass vial with a butyl rubber. As a control system, there provided a glass vial, with no a test saccharide, which differed from the test glass vial on this point. These glass vials were heated at 105° C. for one hour, cooled to ambient temperature, and kept in an aluminum heat-block (abbreviated as “heat block, hereinafter”), which had been preheated to 80° C. After 5-minutes standing, two milliliters of a head space gas (abbreviated as “HSG”, hereinafter) were collected from each glass vial with a syringe.
(§2) Upon the HSG samples, the level of a body-odor-like smell was examined on a panel test consisting of six professional panels; the panels directly smelled the samples from each glass vial and judged the level of the smells for each samples with test saccharides based on the following four ranks, i.e., the same or higher level of odor (+++), slightly lower level of odor (++), clearly lower level of odor (+), and odorless (−) as compared with the control system. Summing up the data from the panels, the samples tested were totally evaluated.

Assay [2] in a line: Panel test of body-odor-like smell (KAREI-SHU), linoleic acid heated (Experiment 2). More on the design: key: +++: the same or higher level of odor; ++: slightly lower level of odor; +: clearly lower level of odor than that of the control system. The settings on record: compared with control system.
Excerpt: as §2
The content of 2-nonenal in HSG was measured by GC similarly as in Experiment 1 except that linoleic acid was used as a fatty acid and 2-nonenal, a volatile aldehyde, was used as a standard substance. The level of a body-odor-like smell, particularly with respect to KAREI-SHU, in each sample was evaluated by panel test in accordance with the method in Experiment 1.

A short description of assay [3]: Formation of 2-nonenal from 9-hexadecanoic acid by heating, GC of HSG (Experiment 3). The settings on record: 9-hexadecanoic acid + 100 mg test saccharide, heated at 105° C. for one hour; control 25.7. The protocol:
as §1
The collected HSG was analyzed for content of volatile aldehydes on gas chromatography (abbreviated as “GC” hereinafter) using “GAS CHROMATOGRAPH GC-14A”, as a GC apparatus; “CAPILLARY COLUMN SUPELCO-WAX”, having 0.25 mm in inner diameter, 60 m in length, and 0.25 μm in thickness, commercialized by Supelco Inc., Tokyo, Japan, as a column for analysis; helium gas at a flow rate of one ml/min as a carrier gas, under temperature conditions of 250° C. for injecting a sample and of a column thermostatic bath temperature being kept at 80° C. for five minutes and then increased up to 240° C. at a rate of 5° C./min. As standard specimens, propanal, butanal, and hexanal as volatile aldehydes were used. Based on the peak area obtained from gas chromatography for the standard specimens and HSG samples, the content of respective volatile aldehydes in HSG was calculated.
The content of 2-nonenal in HSG was measured by GC similarly as in Experiment 1 except that 9-hexadecanoic acid or palmitoleic acid was used as a fatty acid and 2-nonenal, a volatile aldehyde, was used as a standard substance. The level of body-odor-like smell, particularly with respect to KAREI-SHU, in each sample was evaluated by panel test in accordance with the method in Experiment 1.

Assay [4] in a line: Dispersion of 2-nonenal, GC of HSG (Experiment 4). The settings on record: 10 mg 2-nonenal + 100 mg test saccharide, 80° C. 5 min (dispersion test); control 8.67. Here is the method: Ten milligrams of 2-nonenal, 500 mg of a cellulose powder, and 1.25 ml of 0.12 M phosphate buffer (pH 6.0) were placed in a 20-ml glass vial. To the glass vial was added 100 mg of either of trehalose, maltitol and sucrose as a test saccharide, followed by sealing with a butyl rubber cap. As a control system, there provided a glass vial with no test saccharide that differed from the test systems only in this point. These glass vials were kept in a heat block, preheated to 80° C. After 5-min standing, the glass vials were sampled by two milliliters of HSG with a gas syringe. The content of 2-nonenal in the sampled HSG was measured by GC in accordance with the method in Experiment 2.

The nature of assay [5]: Formation of 2-nonenal from 9-hexadecanoic acid at the temperature of human body, GC of HSG (Experiment 6). The settings on record: 37° C., 9,000 lux. The protocol: (§3) One hundred milligrams of 9-hexadecanoic acid as a fatty acid, 500 mg of a cellulose powder, and 1.25 ml of 0.12 M phosphate buffer (pH 6.0) were placed in a 20-ml glass vial. To the glass vial was added 100 mg of either of trehalose, maltitol and sucrose as a test saccharide, followed by sealing with a butyl rubber cap for use as a test system. As a control system, there provided a glass vial with no test saccharide that differed from the test systems only in this point. In both the test- and control-systems, they were respectively provided in doublet.
(§4) These glass vials were allowed to stand in a 37° C.-thermostatic-bath under the irradiation of 9,000 lux by a fluorescent lamp. At 3-days of standing, one of each pair of the vials containing the same composition, and 7-days of standing, the other vial of each resting pair of the vials were transferred to a heat block, which had been preheated to 80° C. and then kept therein for five minutes, followed by analyzing the content of 2-nonenal in HSG in each vial by GC similarly as in Experiment 2. After the collection of HSG, the smell from glass vials was evaluated by panel test in accordance with the method in Experiment 2.

Assay [6] is described as follows: Panel test of smell, 9-hexadecanoic acid at 37° C. (Experiment 6). More on the design: key: +++: the same or higher level of odor; ++: slightly lower level of odor; +: clearly lower level of odor than that of the control system. The settings on record: 37° C., 9,000 lux.
Excerpt: as §2, §3, §4

Setting [7] is: 3-days of standing, control 0.03.
Where [8] appears, read: 7-days of standing, control 16.8.

On to `OC[C@H]1O[C@H](O[C@H]2O[C@H](CO)[C@@H](O)[C@H](O)[C@H]2O)[C@H](O)[C@@H](O)[C@@H]1O` [Trehalose, trehalose], for which the “Evaluation of panel test” value in assay [1], in assay [2] and in assay [6] (7-days of standing) was “+” throughout. The “Content of 2-nonenal in HSG” value came out at 4.10 µg/mL in assay [3], 8.60 µg/mL in assay [4], 0.00 µg/mL in assay [5] (setting [7]) and 2.64 µg/mL in assay [5] (setting [8]).

`OC[C@@H](O)[C@@H](O[C@H]1O[C@H](CO)[C@@H](O)[C@H](O)[C@H]1O)[C@H](O)[C@@H](O)CO` [Maltitol, maltitol]: the “Evaluation of panel test” value is reported as “++” in assay [1], “+” in assay [2] and “+” in assay [6] (7-days of standing). Further, the “Content of 2-nonenal in HSG” value in assay [3] is 6.17 µg/mL; in assay [4], 8.27 µg/mL; in assay [5] (setting [7]) it was 0.00 µg/mL; in assay [5] (setting [8]) it was 2.77 µg/mL.

Regarding `OC[C@H]1O[C@@](CO)(O[C@H]2O[C@H](CO)[C@@H](O)[C@H](O)[C@H]2O)[C@@H](O)[C@@H]1O` [Sucrose, sucrose], the “Evaluation of panel test” value was “+++” in assay [1], “+++” in assay [2], “++” in assay [6] (3-days of standing) and “+++” in assay [6] (7-days of standing). Moreover, the “Content of 2-nonenal in HSG” value is 24.4 µg/mL in assay [3], 8.70 µg/mL in assay [4], 0.26 µg/mL in assay [5] (setting [7]) and 16.4 µg/mL in assay [5] (setting [8]).
